Target: Human factor D (Homo sapiens (Human), UniProt P00746)
Experiment: Human Factor D Assay
Assay type: biochemical
Method: The assay of Example 8 was used to determine the IC50's of the compounds. Other standard factor D inhibition assays are also available.
Example 8. Human Factor D Assay
Human factor D (purified from human serum, Complement Technology, Inc.) at 80 nM final concentration is incubated with test compound at various concentrations for 5 minutes at room temperature in 50 mM Tris, 1M NaCl, pH 7.5. A synthetic substrate Z-L-Lys-SBzl and DTNB (Ellman's reagent) are added to final concentrations of 100 μM each. The increase in color is recorded at OD405 nm in a microplate in kinetic mode over 30 minutes with 30 second time points in a spectrofluorimeter. IC50 values are calculated by non-linear regression from the percentage of inhibition of complement factor D activity as a function of test compound concentration.

Chain of Human factor D (P00746 26-253): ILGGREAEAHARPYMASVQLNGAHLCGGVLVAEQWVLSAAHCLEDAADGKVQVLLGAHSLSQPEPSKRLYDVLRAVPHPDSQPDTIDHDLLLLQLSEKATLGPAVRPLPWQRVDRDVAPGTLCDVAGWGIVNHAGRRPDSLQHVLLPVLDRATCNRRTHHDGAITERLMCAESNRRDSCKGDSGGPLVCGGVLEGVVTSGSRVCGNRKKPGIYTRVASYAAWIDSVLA

CC(=O)c1cn(CC(=O)N2C[C@H](F)C[C@H]2C(=O)Nc2cccc(Br)c2)c2ccc(Oc3ncc(Br)cn3)cc12 [Compound 35] was tested. Which IC50 did it give?
The IC50 was less than 1 µM.

— patent publication US10550140B2 (Achillion Pharmaceuticals, Inc., priority 2014, dated 2020)
